Series [1] addresses T1, GRPR (Homo sapiens, UniProt P30550). Put plainly: Competitive binding in human breast cancer T47D cells. As to conditions: tested in triplicate. An excerpt: Table 1 Analytical data for NOTA-BBN(6-14) monomer and dimmers | column: Peptide
Series [2] has as its target T2, GRPR (Mus musculus, UniProt P21729).
T2 construct: using the pancreas, a GRPR-rich tissue, as a target for specific receptor-mediated accumulation; from tissue; host or cells: Female Balb/c mice, in vivo; organs (pancreas and others) collected 30 min p.i
Put plainly: Biodistribution in Balb/c mice (in vivo GRPR-targeting efficacy). The settings on record: mouse, pancreas, intravenous, total radioactivity; 64Cu-labeled peptide, female Balb/c mice, 30 min p.i. How it is done: To determine the in vivo GRPR-targeting efficacy of labeled peptides, biodistribution of female Balb/c mice were realized with a minimum of 4 mice for each condition. Briefly, mice were injected with 370 to 740 kBq (10 to 20 μCi; 100 μL) of either ^64Cu/NOTA-monomer, ^64Cu/NOTA-dimer 1 or ^64Cu/NOTA-dimer 2 via the caudal vein. The animals were sacrificed with CO2 at 30 min post-injection [p.i.]. Organs of interest were then collected, weighed and measured in a gamma counter. The results were expressed as percentage of the injected dose per gram of tissue [%ID/g].

In series [3] the target is T1, GRPR. Put plainly: Competitive binding assay with [125I-Tyr4]bombesin on PC3 cells. Also noted: host or cells: PC3 cells (whole, adherent cells in 24-well plates). The settings on record: read-out: Ki (affinity for GRPR). How it is done: Competition assays were performed in 24-well plates using PC3 cells. The cells were cultured until near confluence, and the medium was replaced by 400 μL of reaction medium (RPMI complemented with 2 mg/mL BSA, 4.8 mg/mL HEPES, 1 U/mL penicillin G and 1 μg/mL streptomycin). For the assay, equal volumes of radioactive and non-radioactive ligands were added. […] The plates were incubated for 40 min at 37°C with agitation. After the incubation, the reaction medium was removed, and the cells were washed three times with PBS at room temperature. The cells were harvested and counted in a gamma counter (Cobra II auto-gamma counter, Packard, MN, USA). Experiments were realized three times in triplicate. Data were analyzed with GraphPad Prism 5 Software (GraphPad Software, San Diego, CA, USA) to determine the IC50. Finally, the Ki was determined using Cheng and Pursoff's formula [32].

Series [4] is classed as in vitro ADME. The settings on record: 24 h. How it is done:
Plasma and in vivo stability studies were realized as previously described by our group. Briefly, after peptide reconstitution, studies were carried out by incubating the tracers in mouse plasma for a period of 24 h and by injecting around 15 to 25 MBq (400 to 650 μCi; 100 μL) of ^64Cu/peptide to female Balb/c mice; 3 mice per peptide. After 24 h, a portion of the incubation mixtures in plasma or blood samples taken from the back paw were quenched with equal amounts of MeCN, chilled (4°C) and centrifuged, and the supernatant was assayed by HPLC. The stability was also determined by radio-TLC directly from plasma and blood samples without further handling; free ^64Cu and purified radiolabeled peptides were used as standards. The radio-TLCs were eluted on C-18-coated plastic sheets with 0.1 M sodium citrate buffer at pH 5.5 using an instant imager system for the radio-detection.

A further series can be described thus: in vivo. Also noted: species or system Balb/c nude mice. The settings on record: Balb/c nude, mouse, total radioactivity. How it is done:
(§1) Tumor-bearing Balb/c nude mice were injected with 370 to 740 kBq (10 to 20 μCi; 100 μL) of ^64Cu/NOTA-monomer and ^64Cu/NOTA-dimer 2 via the caudal vein and sacrificed with CO2 at different periods of time after injection. Organs of interest were then collected and weighed. -Radioactivity was measured in a gamma counter. The blocking experiments were realized by co-injecting 0.1 μmol of non-radiolabeled peptide. The results were expressed as %ID/g with a minimum of 3 mice for each condition.

A further series has as its system PC3 tumor. Put plainly: in vivo. Also noted: species or system Balb/c nude mice. As to conditions: mouse. How it is done: as §1

Square brackets hold non-standard residues; d marks the D form. Peptide text beside a SMILES is read from it. * marks the point of attachment. NOTA = O=C(O)CN1CCN(CC(=O)O)CCN(CC(=O)*)CC1; 2Thi = N[C@@H](Cc1cccs1)C(=O)O; Nle = CCCC[C@H](N)C(=O)O; AEEA = NCCOCCOCC(=O)O; βAla = NCCC(=O)O

T1 sequence (P30550 whole entry): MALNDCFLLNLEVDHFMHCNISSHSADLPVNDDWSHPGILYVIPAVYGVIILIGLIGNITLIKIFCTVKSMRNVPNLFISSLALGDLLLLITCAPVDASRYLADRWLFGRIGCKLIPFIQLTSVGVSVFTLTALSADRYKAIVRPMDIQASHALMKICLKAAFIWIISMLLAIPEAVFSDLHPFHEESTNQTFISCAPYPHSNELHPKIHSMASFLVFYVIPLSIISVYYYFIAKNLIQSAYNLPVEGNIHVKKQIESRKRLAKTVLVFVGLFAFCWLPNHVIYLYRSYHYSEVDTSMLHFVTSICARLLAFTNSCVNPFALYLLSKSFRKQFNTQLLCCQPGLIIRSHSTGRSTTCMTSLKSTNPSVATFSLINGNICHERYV
T2 sequence (P21729 whole entry): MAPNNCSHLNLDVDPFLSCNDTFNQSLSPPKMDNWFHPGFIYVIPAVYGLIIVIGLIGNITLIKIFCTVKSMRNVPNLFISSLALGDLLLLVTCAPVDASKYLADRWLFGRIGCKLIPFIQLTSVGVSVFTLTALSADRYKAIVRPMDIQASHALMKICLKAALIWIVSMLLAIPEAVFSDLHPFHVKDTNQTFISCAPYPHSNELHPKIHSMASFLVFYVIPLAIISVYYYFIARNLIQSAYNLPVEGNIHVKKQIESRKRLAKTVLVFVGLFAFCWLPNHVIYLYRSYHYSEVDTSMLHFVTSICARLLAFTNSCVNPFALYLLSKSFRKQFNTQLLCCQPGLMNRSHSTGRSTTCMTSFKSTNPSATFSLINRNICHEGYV

In the case of `CCCC[C@H](NC(=O)[C@H](Cc1cccs1)NC(=O)[C@H](Cc1c[nH]cn1)NC(=O)CCNC(=O)[C@@H](NC(=O)[C@H](C)NC(=O)[C@H](Cc1c[nH]c2ccccc12)NC(=O)[C@H](CCC(N)=O)NC(=O)[C@@H](Cc1ccc(O)cc1)NC(=O)COCCOCCNC(=O)CN1CCN(CC(=O)O)CCN(CC(=O)O)CC1)C(C)C)C(N)=O` [NOTA-monomer, NOTA-PEG-BBN(6-14)] ({NOTA-AEEA}-[dY]QWAV[βAla]H[2Thi][Nle]-NH2), the values for the Ki at GRPR [1] and at GRPR [3] were 1.3 nM and 2.51 ± 1.54 nM, respectively. Also, at GRPR [2], the tissue uptake at 0.5 h is 18.4 ± 2.9 %ID/g.
For `CCCC[C@H](NC(=O)[C@H](Cc1cccs1)NC(=O)[C@H](Cc1c[nH]cn1)NC(=O)CCNC(=O)[C@@H](NC(=O)[C@H](C)NC(=O)[C@H](Cc1c[nH]c2ccccc12)NC(=O)[C@H](CCC(N)=O)NC(=O)[C@@H](Cc1ccc(O)cc1)NC(=O)COCCOCCNC(=O)CN1CCN(CC(=O)O)CCN(CC(=O)O)CC1)C(C)C)C(N)=O` [^64Cu/NOTA-monomer, metal not drawn] ({NOTA-AEEA}-[dY]QWAV[βAla]H[2Thi][Nle]-NH2), in series [4], the “Stability in mouse plasma” value was “stable”. Also, the tissue to tissue ratio at 0.5 h in “in vivo” (iv, Tumor/blood ratio) was 1.49 ± 0.41. In “in vivo” (Biodistribution Liver), the tissue uptake at 0.5 h worked out at 5.38 ± 8.12 %ID/g. Besides, the tissue uptake at 0.5 h in the series “in vivo” (Biodistribution Pancreas) was found to be 5.1 ± 2.5 %ID/g. Further, in the series on PC3 tumor (Balb/c nude, 0.5 h), the “Biodistribution Adrenal” value is listed as 4.29 ± 1.13 %ID/g, the “Biodistribution Blood” value was found to be 1.35 ± 0.47 %ID/g, the “Biodistribution Bone” value came out at 0.43 ± 0.46 %ID/g and the “Biodistribution Brain” value is on record as 0.08 ± 0.07 %ID/g. In the series on PC3 tumor (Balb/c nude, 0.5 h), the “Biodistribution Fat” value is recorded as 0.65 ± 0.54 %ID/g, the “Biodistribution Heart” value is given as 1.05 ± 0.91 %ID/g, the “Biodistribution Kidney” value is on record as 10.42 ± 1.29 %ID/g and the “Biodistribution Lungs” value is on record as 1.77 ± 1.28 %ID/g. Also, in the series with PC3 tumor (Balb/c nude, 0.5 h), the “Biodistribution Muscle” value is listed as 0.40 ± 0.33 %ID/g, the “Biodistribution Plasma” value is on record as 2.48 ± 0.63 %ID/g, the “Biodistribution Spleen” value was 1.63 ± 1.82 %ID/g and the “Biodistribution Tumor” value was 1.79 ± 0.46 %ID/g. In the series with PC3 tumor (Balb/c nude, iv, 0.5 h), the Tumor/kidney ratio was 0.17 ± 0.04, the Tumor/liver ratio worked out at 2.07 ± 1.13, the Tumor/muscle ratio is on record as 7.42 ± 3.17 and the Tumor/pancreas ratio is 0.44 ± 0.17. The Tumor/muscle ratio in the series on PC3 tumor worked out at 7.42 ± 0.41.

What is called Ki is a measure of affinity in units of concentration, obtained from inhibition or displacement. One may read the tissue uptake as the share of the injected amount in each gram of the tissue.

The values above are taken from paper PMC3323469, “Comparative study of ^64Cu/NOTA-[D-Tyr^6,βAla^11,Thi^13,Nle^14]BBN(6-14) monomer and dimers for prostate cancer PET imaging” (EJNMMI Research, 2012).
